{
  "source": "paper PMC5826917",
  "about": "“A small molecule inhibitor of Nicotinamide N-methyltransferase for the treatment of metabolic disorders” (Scientific Reports, 2018)",
  "key": {"ob/ob mice": {"tested_on": "ob/ob mice", "assay": "Chronic efficacy study in ob/ob mice", "type": "in vivo, mouse", "description": "(§1) Samples for MNA were analyzed employing a fit-for-purpose LC-MS/MS method. PE-Sciex API-4000 triple quadrupole (PerkinElmerSciex Instruments, Boston, MA) mass spectrometer was employed for this analysis. Samples (5 µL) were injected onto Kinetex HILIC (50 × 4.6 mm, 2.6 µm; Phenomenex, Torrance, CA, USA) column connected to Shimadzu VP (Shimadzu, Japan) LC system. The gradient mobile phase mixture of 0.2% formic acid and acetonitrile was delivered at a flow rate of 0.45 ml min-1 into the mass spectrometer electrospray ionization (ESI) chamber. Quantitation was achieved by MS/MS detection in positive ion mode for MNA and internal standard (d4–MNA). Detection of the ions was performed in the multiple reaction monitoring (MRM) mode, monitoring the transition of the m/z 137 precursor ion to the m/z 92 product ion for MNA and m/z 141 precursor ion to the m/z 84 product ion for d4-MNA (internal standard).\n(§2) A simple protein precipitation extraction method was followed for extraction of N-methylnicotinamide from plasma and various tissue homogenate samples. The tissue samples were homogenized with 1:3 proportions of phosphate buffer saline (PBS) and this homogenate was used for N-Methylnicotinamide determinations. To an aliquot of ~50 μL of plasma/ liver homogenate/ adipose tissue homogenate samples ~300 µl of acetonitrile containing IS (d4-MNA) solution was added, followed by vortex for ~3 minutes and centrifuged for 10 minutes at 14,000 rpm. The supernatant was separated and transferred to pre-labeled HPLC vials and analyzed by LC-MS/MS system.\n(§3) Male C57BL6/N (Vivo Bio Tech Ltd, India), ob/ob (B6.V-Lepob/OlaHsd) and its lean control (Envigo laboratories Inc, USA) and db/db (BKS.Cg- + Leprdb/ + Leprdb/OlaHsd) and its lean control (Envigo laboratories Inc, USA) were housed in individually ventilated cages (n = 5/cage) under standard laboratory conditions. The study room environment was maintained at a temperature of 21–24 °C and, relative humidity at 40–70%. The animal rooms were maintained under 12 h light and dark cycle. Animals were provided with ad libitum access to water and food (except where noted otherwise, e.g. during fasting prior for glucose tolerance tests, fasting prior to terminal sacrifice). Animals were acclimatized for 1 week before initiation of studies. For Diet induced obesity (DIO) mice study, C57BL6/N mice were maintained on rodents chow diet (Teklad; Harlan) or HFD (60% Kcal; Research diet) for 14 weeks before study initiation and throughout the study period. ob/ob and db/db mice and their lean controls were maintained on rodents chow diet (Teklad; Harlan). All the experiments were approved by Institutional Animal Ethics Committee (IAEC) of Jubilant Biosys Ltd, India.\nLean control + Vehicle and HFD + Vehicle Control groups (G1 and G2) mice were administered with vehicle. Dose formulations of HFD + JBSNF-000088, 50 mg kg^−1, po, bid were administered at dose volume of 5 mL kg^−1 body weight to G3 mice. Similar pattern was followed for ob/ob mice and db/db mice studies. The dose volume for individual animals was calculated based on the most recently recorded body weight during the study period. […] Cage side observations of animals for visible clinical signs, was carried out once daily throughout the study period. Individual animal body weights were recorded twice weekly during the study period.\nThe ob/ob mice were 12 weeks of age at the start of the study and db/db mice were 8 weeks of age at the start of the study. DIO mice were 20 weeks of age at the start of the study. In each study, non-diabetic lean mice comprised the control group which received vehicle (0.5% w/v HEC and 0.5% v/v Tween 80) and obese or diabetic mice were randomly assigned to two groups based on body weight and unfasted glucose which received either vehicle (0.5% w/v HEC and 0.5% v/v Tween 80) or JBSNF-000088, 50 mg kg^−1, po, bid for 30 days."}, "in vivo [1]": {"assay": "in vivo", "conditions": "male, db/db (BKS.Cg- + Leprdb/ + Leprdb/OlaHsd), mouse, in vivo, JBSNF-000088 (μM)", "description": "as §1, §2\n(§4) Samples for methylated JBSNF-000088 were analyzed employing a fit-for-purpose LC-MS/MS method. PE-Sciex API-5500 triple quadrupole (PerkinElmerSciex Instruments, Boston, MA) mass spectrometer was employed for this analysis. Samples (2 µL) were injected onto Atlantis dC18 (50 × 4.6 mm, 3 µm; Waters, Milford, MA, USA) column connected to Shimadzu VP (Shimadzu, Japan) LC system. The gradient mobile phase mixture of 0.2% formic acid and acetonitrile was delivered at a flow rate of 0.9 mL min-1 into the mass spectrometer electrospray ionization (ESI) chamber. Quantitation was achieved by MS/MS detection in positive ion mode for methylated JBSNF-000088 and internal standard (Tolbutamide). Detection of the ions was performed in the multiple reaction monitoring (MRM) mode, monitoring the transition of the m/z 168 precursor ion to the m/z 128.8, product ion for MNA and m/z 271 precursor ion to the m/z 91 product ion for tolbutamide (internal standard).\nas §3\n(§5) Lean control + Vehicle and HFD + Vehicle Control groups (G1 and G2) mice were administered with vehicle."}, "db/db mice": {"tested_on": "db/db mice", "assay": "Chronic efficacy study in db/db mice", "conditions": "db/db mice", "description": "as §1, §2, §4, §3, §5"}, "[2]": {"biological_target": "Adenosine Receptor 1 (ADORA1) (Homo sapiens, UniProt P30542)", "sequence (P30542 whole entry)": "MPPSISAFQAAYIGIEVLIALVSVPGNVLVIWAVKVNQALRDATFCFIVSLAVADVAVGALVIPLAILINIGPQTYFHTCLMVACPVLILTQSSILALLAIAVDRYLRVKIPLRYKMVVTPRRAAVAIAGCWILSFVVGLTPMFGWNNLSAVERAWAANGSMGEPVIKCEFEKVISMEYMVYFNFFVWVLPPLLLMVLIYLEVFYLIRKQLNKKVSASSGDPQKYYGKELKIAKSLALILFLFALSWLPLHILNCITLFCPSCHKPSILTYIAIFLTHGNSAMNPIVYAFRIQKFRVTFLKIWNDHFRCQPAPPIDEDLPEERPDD", "assay": "Selectivity panel: ADORA1", "type": "cell-based"}, "[3]": {"biological_target": "Adrenoreceptor beta 1 (ADRB1) (Homo sapiens, UniProt P08588)", "sequence (P08588 whole entry)": "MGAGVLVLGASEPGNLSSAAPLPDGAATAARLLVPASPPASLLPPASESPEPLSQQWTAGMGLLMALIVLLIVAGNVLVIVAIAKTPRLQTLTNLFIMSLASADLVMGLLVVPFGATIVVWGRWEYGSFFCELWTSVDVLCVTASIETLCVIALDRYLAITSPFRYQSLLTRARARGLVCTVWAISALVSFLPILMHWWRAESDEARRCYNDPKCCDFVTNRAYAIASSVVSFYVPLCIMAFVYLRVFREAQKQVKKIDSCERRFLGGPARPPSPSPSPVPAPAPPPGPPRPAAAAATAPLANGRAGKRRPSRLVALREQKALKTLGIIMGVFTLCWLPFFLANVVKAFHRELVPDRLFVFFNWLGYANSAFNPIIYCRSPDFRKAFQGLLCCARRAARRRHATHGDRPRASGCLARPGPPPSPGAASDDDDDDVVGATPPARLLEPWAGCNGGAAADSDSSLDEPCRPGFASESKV", "assay": "Selectivity panel: ADRB1", "type": "cell-based"}, "cytochrome P450 enzymes": {"tested_on": "cytochrome P450 enzymes", "conditions": "20 µM"}, "in vivo [4]": {"assay": "in vivo", "conditions": "C57BL/6, mouse"}, "[5]": {"conditions": "30 days, p < 0.0001 vs vehicle control"}},
  "data": [
    {"smiles": "COc1ccc(C(N)=O)cn1", "note": "[JBSNF-000088, 6-methoxynicotinamide]", "values": [
      {"measurement": "body weight gain", "setting": "ob/ob mice; 50 mg/kg b.i.d p.o., 30 days, vs vehicle", "value": "gained comparable weight"},
      {"measurement": "MNA levels in visceral WAT and subcutaneous fat", "setting": "ob/ob mice; [5]", "value": "statistically significant reduction"},
      {"measurement": "fed blood glucose or insulin", "setting": "ob/ob mice; day 21, vs vehicle control", "value": "no reduction"},
      {"measurement": "glucose tolerance", "setting": "ob/ob mice; day 28", "value": "statistically significant improvement"},
      {"measurement": "AUC blood glucose (OGTT)", "setting": "ob/ob mice; day 28, p < 0.001 vs vehicle control", "value": "significantly (p < 0.001) lower"},
      {"measurement": "plasma insulin", "setting": "ob/ob mice; fed days 7, 14 or 21, fasting day 28, 15 minutes after glucose bolus", "value": "not accompanied by a reduction in plasma insulin"},
      {"measurement": "HOMA-IR index", "setting": "ob/ob mice; p < 0.001 vs vehicle control", "value": "statistically significant improvement"},
      {"measurement": "cumulative food intake", "setting": "ob/ob mice; vs vehicle", "value": "comparable"},
      {"measurement": "concentration at 1 h", "setting": "in vivo [1]; plasma", "value": "275 ± 39", "unit": "µM"},
      {"measurement": "concentration at 1 h", "setting": "in vivo [1]; subcutaneous fat", "value": "6.94 ± 1.52", "unit": "µM"},
      {"measurement": "concentration at 1 h", "setting": "in vivo [1]; visceral fat", "value": "7.14 ± 2.18", "unit": "µM"},
      {"measurement": "HOMA-IR", "setting": "db/db mice", "value": "no change"},
      {"measurement": "body weight gain", "setting": "db/db mice; 50 mg kg^−1 bid, four weeks, vs vehicle", "value": "gained comparable weight"},
      {"measurement": "MNA levels in liver and visceral WAT and s/c fat", "setting": "db/db mice; [5]", "value": "statistically significant reduction"},
      {"measurement": "fed blood glucose", "setting": "db/db mice; day 21, p < 0.001 vs vehicle control", "value": "moderate but statistically significant reduction"},
      {"measurement": "glucose tolerance", "setting": "db/db mice; day 26, not statistically significant", "value": "trend towards improvement"},
      {"measurement": "Fed insulin levels on days 7, 14 and 21 and fasting insulin levels on day 28", "setting": "db/db mice; vs vehicle", "value": "not different"},
      {"measurement": "cumulative food intake", "setting": "db/db mice; vs vehicle", "value": "comparable"},
      {"measurement": "AUC blood glucose (OGTT)", "setting": "db/db mice; vs vehicle control", "value": "Slightly lower"},
      {"measurement": "E% (agonistic), ADORA1", "setting": "[2]; 10 µM", "value": -3, "unit": "%"},
      {"measurement": "inhibition at 10 µM", "setting": "[2]; read-out: I% (antagonistic or inhibitory), ADORA1", "value": -1, "unit": "%"},
      {"measurement": "E% (agonistic), ADRB1", "setting": "[3]; 10 µM", "value": 3, "unit": "%"},
      {"measurement": "inhibition at 10 µM", "setting": "[3]; read-out: I% (antagonistic or inhibitory), ADRB1", "value": -33, "unit": "%"},
      {"measurement": "Cyp Inhibition", "setting": "cytochrome P450 enzymes", "value": ">20", "unit": "µM"},
      {"measurement": "Vd", "setting": "in vivo [4]", "value": 0.69, "unit": "L/kg"},
      {"measurement": "bioavailability", "setting": "in vivo [4]", "value": 43, "unit": "%"},
      {"measurement": "clearance", "setting": "in vivo [4]", "value": 20.5, "unit": "mL/min/kg"},
      {"measurement": "clearance", "setting": "in vivo [4]; iv", "value": 21, "unit": "mL/min/kg"},
      {"measurement": "half-life", "setting": "in vivo [4]; iv", "value": 30, "unit": "min"},
      {"measurement": "Cmax", "setting": "in vivo [4]; po, 10 mg/kg", "value": 3570, "unit": "ng/mL"},
      {"measurement": "Tmax", "setting": "in vivo [4]; po, 10 mg/kg", "value": 30, "unit": "min"},
      {"measurement": "bioavailability", "setting": "in vivo [4]; po, 10 mg/kg", "value": "~40", "unit": "%"},
      {"measurement": "half-life", "setting": "in vivo [4]; po, 10 mg/kg", "value": 24, "unit": "min"}
    ]}
  ]
}
